Assay results from patent US20220257610A1, “Enhancing drug activity through accentuated buccal/sublingual administration” (priority 2019, published 2022).
Where two headings read alike, the source gives them in different places.

Tests used:
[1] = Comparative dosage study, sleep times in humans; format: in vivo; settings: much lower dose with adjuvant, compared with oral
Excerpt: The best method for carrying out the invention: Alprazolam and adjuvant are formulated into sublingual tablets/sprays by conventional methods and administered and sleep times recorded for humans as well as animals.

[2] = same or similar dose with permeability enhancers, compared with oral
Description: The clinical trials were conducted in two parts. The first part consisted of the following stages.
Further trials were carried out to determine the duration of action glipizide and adjuvant combination.
To test the efficacy of adjuvant we compared the efficacy of 5 mg of sub-lingual glipizide with adjuvant, with 5 mg of sublingual glipizide without adjuvant. […] Finally tests were carried out to determine whether the adjuvant used participates in receptor binding process. Keeping the amount of glipizide at 5 mg the quantity of adjuvant were doubled.

Cc1nnc2n1-c1ccc(Cl)cc1C(c1ccccc1)=NC2 [alprazolam]
increase in effect [1]: 200%

Cc1cnc(C(=O)NCCc2ccc(S(=O)(=O)NC(=O)NC3CCCCC3)cc2)cn1 [glipizide]
increase in effect [2]: 3200%
